# Reference: ChEMBL document CHEMBL1155571, “Pelorol from the tropical marine sponge Dactylospongia elegans” (J Nat Prod, 2000)
# How the values were obtained:
# [1] = test system: Trypanosoma brucei rhodesiense; experiment: Antitrypanosomal activity against Trypanosoma rhodesiense; assay type: functional, organism-based
# [2] = test system: Plasmodium falciparum; experiment: Antiplasmodial activity against Plasmodium falciparum K1; assay type: functional, organism-based
# [3] = test system: Plasmodium falciparum; experiment: Antiplasmodial activity against Plasmodium falciparum NF54; assay type: functional, organism-based
# [4] = test system: tyrosine kinase; experiment: Inhibition of tyrosine kinase at 1 ug/uL
inhibition [4],Compound,IC50 [1],IC50 [2],IC50 [3]
–,COC(=O)c1cc(O)c(O)c2c1[C@]1(C)CC[C@H]3C(C)(C)CCC[C@]3(C)[C@H]1C2 [PELOROL],17.4 mg/L,0.786 mg/L,1.91 mg/L
–,C[C@@H]1CC[C@H]2[C@@H](C)C(=O)O[C@@H]3O[C@@]4(C)CC[C@@H]1[C@]32OO4 [ARTEMISININ],–,0.0014 mg/L,0.0025 mg/L
87%,C=C1CCC[C@H]2[C@](C)(CC3=C(O)C(=O)C=C(OC)C3=O)[C@@H](C)CC[C@]12C [ILIMAQUINONE],7.7 mg/L,1.74 mg/L,0.949 mg/L
